This assay concerns the target T1, FES (FPS) (Homo sapiens, UniProt P07332).
T1 construct: purchased Thermo Fisher Scientific (Life Technologies) SelectScreen
In words: SelectScreen Z'LYTE. Format: biochemical. The gist of the method:
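SelectScreen broad panel; activity (Z'LYTE, Adapta) plus binding formats. ATP: Km app for CSF1R Z'LYTE; 10 for CAMK1 Adapta. Readout = % per kinase.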

We go through one compound from article PMC6934184, “Selective DNA-PKcs inhibition extends the therapeutic index of localized radiotherapy and chemotherapy” (The Journal of Clinical Investigation, 2019).

T1 sequence (P07332 whole entry): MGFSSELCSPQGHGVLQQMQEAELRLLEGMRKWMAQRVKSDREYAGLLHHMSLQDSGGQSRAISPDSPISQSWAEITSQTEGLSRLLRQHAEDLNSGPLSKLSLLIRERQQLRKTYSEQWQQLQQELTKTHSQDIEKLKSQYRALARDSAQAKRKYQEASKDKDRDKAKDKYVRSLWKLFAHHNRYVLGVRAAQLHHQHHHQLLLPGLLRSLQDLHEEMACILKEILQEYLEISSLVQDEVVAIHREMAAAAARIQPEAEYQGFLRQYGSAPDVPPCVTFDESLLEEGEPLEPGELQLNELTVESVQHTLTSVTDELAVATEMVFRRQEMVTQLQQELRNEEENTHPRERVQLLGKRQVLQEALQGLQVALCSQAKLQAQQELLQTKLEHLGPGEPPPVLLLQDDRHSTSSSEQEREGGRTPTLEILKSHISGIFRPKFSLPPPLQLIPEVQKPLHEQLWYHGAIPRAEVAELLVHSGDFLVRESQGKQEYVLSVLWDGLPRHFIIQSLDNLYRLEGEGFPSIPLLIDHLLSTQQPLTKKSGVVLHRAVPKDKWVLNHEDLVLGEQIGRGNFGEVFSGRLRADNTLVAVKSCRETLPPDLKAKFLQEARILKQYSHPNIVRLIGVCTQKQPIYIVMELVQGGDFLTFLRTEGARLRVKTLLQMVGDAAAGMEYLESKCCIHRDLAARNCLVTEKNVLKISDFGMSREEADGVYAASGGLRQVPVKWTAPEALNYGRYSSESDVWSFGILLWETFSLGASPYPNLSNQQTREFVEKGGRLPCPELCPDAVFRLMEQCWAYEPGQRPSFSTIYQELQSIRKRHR

`CN(C(=O)CN1CCOCC1)c1ccc2sc3c(-c4cccc5c(=O)cc(N6CC7CCC(C6)O7)oc45)cccc3c2c1` [NU5455] had an inhibition at 1 µM of 10.4%.

One may read the inhibition as how much of the control response was suppressed. Low readings indicate little suppression, high ones strong suppression.
